# Where two headings read alike, the source gives them in different places.
# Legend:
# [1] = Method: In this study the stabilty of FMdC glutamate and glycine buffers at pH 8.5 to 9.5 was evaluated at various storage conditions (5°, 25°, 35°, 45°, and 55° C.). FMdC solutions were made up at 1 mg/mL in 7.1 mg/mL monosodium glutamate monohydrate (38 mM) or 2.8 mg/mL glycine (37 mM) and pH adjusted to target with sodium hydroxide. Solution samples were placed in stoppered glass vials and stored at the various temperatures. […] Detention was by UV at 268 nm.
# The higher-temperature data can be evaluated further by Arrhenius analysis to predict shelf lives at lower temperatures. First-order rate constants are determined by fitting the concentration and time data to an equation of the form C(t)=C(0)·exp (−k·t), where C(t) is the concentration at time t, C(0) is the concentration at time 0, t is the time, and k is the first-order rate constant. The rate constants are in turn fitted to an equation of the form k (T)=A·exp (−Ea/RT), where k(T) is the rate constant at temperature T, Ea is the energy of activation, R is the gas constant, T is the absolute temperature (in ° K), and A is a constant.
# [2] = Stability of FMdC solution 10 mg/mL in various buffer systems at 40° C. (Example 4, HPLC); format: physicochemical; details: for pH: 10 mg/mL
# Method: In this study the stability of FMdC solution 10 mg/mL was studied in various buffer systems. FMdC solutions were made up and pH adjusted to target with sodium hydroxide. Solution samples were placed in stoppered glass vials and stored at 40° C. FMdC content was assessed at various times using the HPLC method described in Example 3 above.
# [3] = human patients with solid tumors, Phase I clinical trials; cited from earlier work
# [4] = Glutamate pH 8.5 buffer, 5° C., 24 weeks
# [5] = Glutamate pH 8.5 buffer, 25° C., 0 weeks
# [6] = Glutamate pH 8.5 buffer, 25° C., 4 weeks
# [7] = Glutamate pH 8.5 buffer, 25° C., 16 weeks
# [8] = Glutamate pH 8.5 buffer, 25° C., 24 weeks
# [9] = Glutamate pH 8.5 buffer, 35° C., 0 weeks
# [10] = Glutamate pH 8.5 buffer, 35° C., 4 weeks
# [11] = Glutamate pH 8.5 buffer, 35° C., 16 weeks
# [12] = Glutamate pH 8.5 buffer, 35° C., 24 weeks
# [13] = Glutamate pH 8.5 buffer, 45° C., 0 weeks
# [14] = Glutamate pH 8.5 buffer, 45° C., 4 weeks
# [15] = Glutamate pH 9.0 buffer, 5° C., 24 weeks
# [16] = Glutamate pH 9.0 buffer, 25° C., 0 weeks
# [17] = Glutamate pH 9.0 buffer, 25° C., 4 weeks
# [18] = Glutamate pH 9.0 buffer, 25° C., 16 weeks
# [19] = Glutamate pH 9.0 buffer, 25° C., 24 weeks
# [20] = Glutamate pH 9.0 buffer, 35° C., 0 weeks
# [21] = Glutamate pH 9.0 buffer, 35° C., 4 weeks
# [22] = Glutamate pH 9.0 buffer, 35° C., 16 weeks
# [23] = Glutamate pH 9.0 buffer, 35° C., 24 weeks
# [24] = Glutamate pH 9.0 buffer, 45° C., 0 weeks
# [25] = Glutamate pH 9.0 buffer, 45° C., 4 weeks
# [26] = Glutamate pH 9.5 buffer, 5° C., 24 weeks
# [27] = Glutamate pH 9.5 buffer, 25° C., 0 weeks
# [28] = Glutamate pH 9.5 buffer, 25° C., 4 weeks
# [29] = Glutamate pH 9.5 buffer, 25° C., 16 weeks
# [30] = Glutamate pH 9.5 buffer, 25° C., 24 weeks
# [31] = Glutamate pH 9.5 buffer, 35° C., 0 weeks
# [32] = Glutamate pH 9.5 buffer, 35° C., 4 weeks
# [33] = Glutamate pH 9.5 buffer, 35° C., 16 weeks
# [34] = Glutamate pH 9.5 buffer, 35° C., 24 weeks
# [35] = Glutamate pH 9.5 buffer, 45° C., 0 weeks
# [36] = Glutamate pH 9.5 buffer, 45° C., 4 weeks
# [37] = Glycine pH 9.0 buffer, 5° C., 24 weeks
# [38] = Glycine pH 9.0 buffer, 25° C., 0 weeks
# [39] = Glycine pH 9.0 buffer, 25° C., 4 weeks
# [40] = Glycine pH 9.0 buffer, 25° C., 16 weeks
# [41] = Glycine pH 9.0 buffer, 25° C., 24 weeks
# [42] = Glycine pH 9.0 buffer, 35° C., 0 weeks
# [43] = Glycine pH 9.0 buffer, 35° C., 16 weeks
# [44] = Glycine pH 9.0 buffer, 35° C., 24 weeks
# [45] = Glycine pH 9.0 buffer, 45° C., 0 weeks
compound,measurement,setting,value
"Nc1ccn([C@@H]2O[C@H](CO)[C@@H](O)/C2=C\F)c(=O)n1 [FMdC, (E)-2′-deoxy-2′-(fluoromethylene)cytidine]",stability in words,[1]; 1 mg/mL,stable for almost 6 months
same,predicted first-order rate constant of degradation,"[1]; 1 mg/mL, pH 9",3.0·10^−4 week^−1
same,FMdC,"[1]; Glutamate pH 8.5 buffer, 5° C., 12 weeks",1.00 mg/mL
same,pH,"[1]; Glutamate pH 8.5 buffer, 5° C., 16 weeks",8.63
same,FMdC,[1]; [4],1.00 mg/mL
same,pH,[1]; [4],8.66
same,FMdC,[1]; [5],1.00 mg/mL
same,pH,[1]; [5],8.50
same,FMdC,[1]; [6],1.00 mg/mL
same,pH,[1]; [6],8.55
same,FMdC,[1]; [7],0.99 mg/mL
same,pH,[1]; [7],7.93
same,FMdC,[1]; [8],0.99 mg/mL
same,pH,[1]; [8],8.64
same,FMdC,[1]; [9],1.00 mg/mL
same,pH,[1]; [9],8.50
same,FMdC,[1]; [10],1.00 mg/mL
same,pH,[1]; [10],8.55
same,FMdC,[1]; [11],0.97 mg/mL
same,pH,[1]; [11],8.59
same,FMdC,[1]; [12],0.95 mg/mL
same,pH,[1]; [12],8.58
same,FMdC,[1]; [13],1.00 mg/mL
same,pH,[1]; [13],8.50
same,FMdC,[1]; [14],0.98 mg/mL
same,pH,[1]; [14],8.56
same,FMdC,"[1]; Glutamate pH 8.5 buffer, 45° C., 16 weeks",0.85 mg/mL
same,FMdC,"[1]; Glutamate pH 8.5 buffer, 45° C., 24 weeks",0.47 mg/mL
same,FMdC,"[1]; Glutamate pH 8.5 buffer, 55° C., 0 weeks",1.00 mg/mL
same,FMdC,"[1]; Glutamate pH 8.5 buffer, 55° C., 2 weeks",0.91 mg/mL
same,FMdC,"[1]; Glutamate pH 8.5 buffer, 55° C., 4 weeks",0.72 mg/mL
same,FMdC,"[1]; Glutamate pH 8.5 buffer, 55° C., 8 weeks",0.03 mg/mL
same,FMdC,"[1]; Glutamate pH 9.0 buffer, 5° C., 12 weeks",1.00 mg/mL
same,pH,"[1]; Glutamate pH 9.0 buffer, 5° C., 16 weeks",9.10
same,FMdC,[1]; [15],1.00 mg/mL
same,pH,[1]; [15],9.05
same,FMdC,[1]; [16],1.01 mg/mL
same,pH,[1]; [16],9.00
same,FMdC,[1]; [17],1.01 mg/mL
same,pH,[1]; [17],9.07
same,FMdC,[1]; [18],0.99 mg/mL
same,pH,[1]; [18],8.80
same,FMdC,[1]; [19],0.99 mg/mL
same,pH,[1]; [19],9.09
same,FMdC,[1]; [20],1.01 mg/mL
same,pH,[1]; [20],9.00
same,FMdC,[1]; [21],1.01 mg/mL
same,pH,[1]; [21],9.06
same,FMdC,[1]; [22],0.98 mg/mL
same,pH,[1]; [22],9.08
same,FMdC,[1]; [23],0.98 mg/mL
same,pH,[1]; [23],9.08
same,FMdC,[1]; [24],1.01 mg/mL
same,pH,[1]; [24],9.00
same,FMdC,[1]; [25],0.99 mg/mL
same,pH,[1]; [25],9.04
same,FMdC,"[1]; Glutamate pH 9.0 buffer, 45° C., 16 weeks",0.92 mg/mL
same,FMdC,"[1]; Glutamate pH 9.0 buffer, 45° C., 24 weeks",0.88 mg/mL
same,FMdC,"[1]; Glutamate pH 9.0 buffer, 55° C., 0 weeks",1.01 mg/mL
same,FMdC,"[1]; Glutamate pH 9.0 buffer, 55° C., 2 weeks",0.96 mg/mL
same,FMdC,"[1]; Glutamate pH 9.0 buffer, 55° C., 4 weeks",0.91 mg/mL
same,FMdC,"[1]; Glutamate pH 9.0 buffer, 55° C., 8 weeks",0.78 mg/mL
same,FMdC,"[1]; Glutamate pH 9.5 buffer, 5° C., 12 weeks",1.00 mglmL
same,pH,"[1]; Glutamate pH 9.5 buffer, 5° C., 16 weeks",9.54
same,FMdC,[1]; [26],1.01 mglmL
same,pH,[1]; [26],9.57
same,FMdC,[1]; [27],1.00 mglmL
same,pH,[1]; [27],9.50
same,FMdC,[1]; [28],1.00 mglmL
same,pH,[1]; [28],9.53
same,FMdC,[1]; [29],1.00 mglmL
same,pH,[1]; [29],9.55
same,FMdC,[1]; [30],0.99 mglmL
same,pH,[1]; [30],9.57
same,FMdC,[1]; [31],1.00 mglmL
same,pH,[1]; [31],9.50
same,FMdC,[1]; [32],1.00 mglmL
same,pH,[1]; [32],9.54
same,FMdC,[1]; [33],0.98 mglmL
same,pH,[1]; [33],9.59
same,FMdC,[1]; [34],0.97 mglmL
same,pH,[1]; [34],9.62
same,FMdC,[1]; [35],1.00 mglmL
same,pH,[1]; [35],9.50
same,FMdC,[1]; [36],0.99 mglmL
same,pH,[1]; [36],9.56
same,FMdC,"[1]; Glutamate pH 9.5 buffer, 45° C., 16 weeks",0.92 mglmL
same,FMdC,"[1]; Glutamate pH 9.5 buffer, 45° C., 24 weeks",0.89 mglmL
same,FMdC,"[1]; Glutamate pH 9.5 buffer, 55° C., 0 weeks",1.00 mglmL
same,FMdC,"[1]; Glutamate pH 9.5 buffer, 55° C., 2 weeks",0.97 mglmL
same,FMdC,"[1]; Glutamate pH 9.5 buffer, 55° C., 4 weeks",0.93 mglmL
same,FMdC,"[1]; Glutamate pH 9.5 buffer, 55° C., 8 weeks",0.82 mglmL
same,FMdC,"[1]; Glycine pH 9.0 buffer, 5° C., 12 weeks",1.01 mg/mL
same,pH,"[1]; Glycine pH 9.0 buffer, 5° C., 16 weeks",9.30
same,FMdC,[1]; [37],1.00 mg/mL
same,pH,[1]; [37],9.33
same,FMdC,[1]; [38],1.00 mg/mL
same,pH,[1]; [38],9.00
same,FMdC,[1]; [39],1.01 mg/mL
same,pH,[1]; [39],9.33
same,FMdC,[1]; [40],1.00 mg/mL
same,pH,[1]; [40],9.30
same,FMdC,[1]; [41],0.99 mg/mL
same,pH,[1]; [41],9.32
same,FMdC,[1]; [42],1.00 mg/mL
same,pH,[1]; [42],9.00
same,pH,"[1]; Glycine pH 9.0 buffer, 35° C., 4 weeks",9.32
same,FMdC,[1]; [43],0.98 mg/mL
same,pH,[1]; [43],9.32
same,FMdC,[1]; [44],0.97 mg/mL
same,pH,[1]; [44],9.31
same,FMdC,[1]; [45],1.00 mg/mL
same,pH,[1]; [45],9.00
same,FMdC,"[1]; Glycine pH 9.0 buffer, 45° C., 4 weeks",0.99 mg/mL
same,FMdC,"[1]; Glycine pH 9.0 buffer, 45° C., 16 weeks",0.92 mg/mL
same,FMdC,"[1]; Glycine pH 9.0 buffer, 45° C., 24 weeks",0.88 mg/mL
same,FMdC,"[1]; Glycine pH 9.0 buffer, 55° C., 0 weeks",1.00 mg/mL
same,FMdC,"[1]; Glycine pH 9.0 buffer, 55° C., 4 weeks",0.91 mg/mL
same,shelf-life (time at which 5% degradation would be expected),[1]; pH 9,several years
same,pH,"[2]; 20 mM TRIS, 0 mon",9.42
same,pH,"[2]; 20 mM TRIS, 1 mon",9.24
same,pH,"[2]; 20 mM TRIS, 2 mon",9.05
same,pH,"[2]; 20 mM TRIS, 3 mon",8.89
same,pH,"[2]; 20 mM TRIS, 4 mon",8.58
same,pH,"[2]; 20 mM glycine, 0 mon",9.60
same,pH,"[2]; 20 mM glycine, 1 mon",9.32
same,pH,"[2]; 20 mM glycine, 2 mon",9.24
same,pH,"[2]; 20 mM glycine, 3 mon",9.11
same,pH,"[2]; 20 mM glycine, 4 mon",8.86
same,pH,"[2]; 20 mM sodium phosphate, 0 mon",9.36
same,pH,"[2]; 20 mM sodium phosphate, 1 mon",8.32
same,pH,"[2]; 20 mM sodium phosphate, 2 mon",7.76
same,pH,"[2]; 20 mM sodium phosphate, 3 mon",7.72
same,pH,"[2]; 20 mM sodium phosphate, 4.7 mon",4.65
same,pH,"[2]; 100 mM sodium phosphate, 0 mon",9.44
same,pH,"[2]; 100 mM sodium phosphate, 1 mon",9.14
same,pH,"[2]; 100 mM sodium phosphate, 2 mon",8.69
same,pH,"[2]; 100 mM sodium phosphate, 3 mon",8.47
same,pH,"[2]; 100 mM sodium phosphate, 4 mon",8.18
same,pH,"[2]; 100 mM sodium phosphate, 6 mon",7.80
same,pH,"[2]; 100 mM sodium phosphate, 9 mon",7.14
same,comparison of buffers in stabilizing FMdC,[2]; same buffer concentrations (20 mM),glycine and TRIS are superior to phosphate
same,tolerability,[3],well tolerated

# Source: patent US20030171329A1, “Stable compositions comprising tezacitabine” (priority 2002, published 2003)
